Assay results reported in PMC6273036, “N-Alkoxyphenylhydroxynaphthalenecarboxamides and Their Antimycobacterial Activity” (Molecules, 2016).
Converted amounts (≈) assume the structure as drawn.

Tests used:
[1] = test system: Mycobacterium kansasii DSM 44162; assay: In vitro antimycobacterial evaluation (broth dilution micro-method, MIC) against M. kansasii; assay type: cell-based; conditions: DSM44162, 168 h, M. kansasii DSM 44162, MIC = IC90, 7 days incubation, visual
[2] = test system: human monocytic leukemia THP-1 cells; assay: In vitro antiproliferative assay (WST-1); conditions: THP-1, 24 h, read-out: IC50 (antiproliferative activity)
Method: Human monocytic leukemia THP-1 cells were used for in vitro antiproliferative assay. Cells were obtained from the European Collection of Cell Cultures (ECACC, Salisbury, UK) and routinely cultured in RPMI 1640 medium supplemented with 10% fetal bovine serum, 2% L-glutamine, 1% penicillin and streptomycin at 37 °C with 5% CO2. Cells were passaged at approximately one-week intervals. Antiproliferative activity of the compounds was determined using a Water Soluble Tetrazolium Salts-1 (WST-1, 2-(4-iodophenyl)-3-(4-nitrophenyl)-5-(2,4-disulfophenyl)-2H-tetrazolium) assay kit (Roche Diagnostics, Mannheim, Germany) according to the manufacturer’s instructions. The tested compounds were dissolved in DMSO and added in five increasing concentrations (0.37, 1.1, 3.3, 10 and 30 μM) to the cell suspension in the culture RPMI 1640 medium. The maximum concentration of DMSO in the assays never exceeded 0.1%. Subsequently, the cells were incubated for 24 h at 37 °C with 5% CO2. For WST-1 assays, cells were seeded into 96-well plates (5 × 10^4 cells/well in 100 μL culture medium) in triplicate in serum-free RPMI 1640 medium, and measurements were taken 24 h after the treatment with the compounds. The median inhibition concentration values, IC50, were deduced through the production of a dose-response curve. All data were evaluated using GraphPad Prism 5.00 software (GraphPad Software, San Diego, CA, USA).

[3] = test system: Mycobacterium tuberculosis H37Ra ATCC 25177; assay: In vitro antimycobacterial evaluation (alamarBlue, MIC) against M. tuberculosis; assay type: cell-based; conditions: 168 h, M. tuberculosis H37Ra ATCC 25177, MIC = 90% or greater (IC90) reduction of growth, 7 days
Method: The evaluation of the in vitro antimycobacterial activity of the compounds was performed against Mycobacterium tuberculosis H37Ra ATCC 25177 (MT), M. kansasii DSM 44162 (MK) and M. smegmatis ATCC 700084 (MS), see Table 1. To lower risk and make manipulation in the laboratory easier, surrogate model pathogens for M. tuberculosis can be used in laboratory studies. Avirulent M. tuberculosis strain H37Ra is very closely related to and has similar pathology as human-infecting M. tuberculosis strains, making it a good model for study especially because of the lower risk for laboratory workers. M. kansasii, the most virulent of the NTM, causes nontuberculous mycobacterial lung infections, which are now very common, and can be indistinguishable from tuberculosis. M. smegmatis is an ideal representative of a fast-growing nonpathogenic microorganism, particularly useful in studying basic cellular processes of special relevance to pathogenic mycobacteria. Therefore additionally M. kansasii and M. smegmatis were chosen as model species for screening of prospective antimycobacterial drugs to control mycobacterial diseases. The potency of the compounds was expressed as the minimum inhibitory concentration (MIC) that is defined for mycobacteria as 90% or greater (IC90) reduction of growth in comparison with the control.
Mycobacterium tuberculosis H37Ra ATCC 25177 was grown in Middlebrook broth (MB), supplemented with Oleic-Albumin-Dextrose-Catalase (OADC) supplement (Becton, Dickinson & Comp., Franklin Lakes, NJ, USA) and mycobactin J (2 μg/mL). At log phase growth, a culture sample (10 mL) was centrifuged at 15,000 rpm/20 min using a bench top centrifuge (Model CR 4-12, Jouan Inc., Winchester, VA, USA). Following the removal of the supernatant, the pellet was washed in fresh Middlebrook 7H9GC broth and re-suspended in fresh, ODAC-supplemented MB (10 mL). The turbidity was adjusted to match McFarland standard No. 1 (3 × 10^8 cfu) with MB broth. A further 1:20 dilution of the culture was then performed in MB broth. The antimicrobial susceptibility of M. tuberculosis was investigated in a 96-well plate format. In these experiments, sterile deionised water (300 µL) was added to all outer-perimeter wells of the plates to minimize evaporation of the medium in the test wells during incubation. Each evaluated compound (100 µL) was incubated with M. tuberculosis (100 µL). Dilutions of each compound were prepared in duplicate. For all synthesized compounds, final concentrations ranged from 1000 μg/mL to 8 μg/mL. All compounds were dissolved in DMSO, and subsequent dilutions were made in supplemented MB. The plates were sealed with parafilm and incubated at 37 °C for 7 days. Following incubation, a 10% addition of alamarBlue (AbD Serotec, Kidlington, UK) was mixed into each well, and readings at 570 nm and 600 nm were taken, initially for background subtraction and subsequently after 24 h re-incubation. The background subtraction is necessary for strongly coloured compounds, where the colour may interfere with the interpretation of any colour change. For non-interfering compounds, a blue colour in the well was interpreted as the absence of growth, and a pink colour was scored as growth.
The minimum inhibitory concentration (MIC) was defined as the lowest concentration of the compound at which no visible bacterial growth was observed, i.e., the MIC is the lowest concentration that prevented a visual colour change from blue to pink. MIC is defined for mycobacteria as 90% or greater (IC90) reduction of growth in comparison with the control. The MIC/IC90 value is routinely and widely used in bacterial assays and is a standard detection limit according to the Clinical and Laboratory Standards Institute (CLSI, www.clsi.org). Rifampicin and isoniazid (Sigma-Aldrich) were used as the standards as they are clinically used antimycobacterial drugs.

M. smegmatis ATCC 700084 = assay: In vitro antimycobacterial evaluation (broth dilution micro-method, MIC) against M. smegmatis; assay type: cell-based; conditions: Mycolicibacterium smegmatis, ATCC700084, 72 h; Mycobacterium smegmatis ATCC 700084; MIC = IC90; 3 days incubation, visual

O=C(Nc1ccccc1)c1c(O)ccc2ccccc12 [Compound 1, 2-Hydroxy-N-phenylnaphthalene-1-carboxamide]
MIC [1]: 15 µM (≈ 3.95 µg/mL)
IC50 [2]: > 30 µM
MIC [3]: 94 µM (≈ 24.7 µg/mL)

COc1ccccc1NC(=O)c1c(O)ccc2ccccc12 [Compound 2a, 2-hydroxy-N-(2-methoxyphenyl)naphtha-lene-1-carboxamide]
MIC [1]: 873 µM (≈ 256 µg/mL)
MIC [3]: 852 µM (≈ 250 µg/mL)
MIC (M. smegmatis ATCC 700084): 873 µM (≈ 256 µg/mL)

COc1cccc(NC(=O)c2c(O)ccc3ccccc23)c1 [Compound 2b, 2-hydroxy-N-(3-methoxyphenyl)naphthalene-1-carboxamide]
MIC [3]: 852 µM (≈ 250 µg/mL)

COc1ccc(NC(=O)c2c(O)ccc3ccccc23)cc1 [Compound 2c, 2-hydroxy-N-(4-methoxyphenyl)naphthalene-1-carboxamide]
MIC [3]: 852 µM (≈ 250 µg/mL)

CCOc1cccc(NC(=O)c2c(O)ccc3ccccc23)c1 [Compound 3b, N-(3-Ethoxyphenyl)-2-hydroxynaphthalene-1-carboxamide]
MIC [1]: 208 µM (≈ 63.9 µg/mL)
MIC [3]: 813 µM (≈ 250 µg/mL)
MIC (M. smegmatis ATCC 700084): 416 µM (≈ 128 µg/mL)

CCCOc1ccccc1NC(=O)c1c(O)ccc2ccccc12 [Compound 4a, 2-Hydroxy-N-(2-propoxyphenyl)naphthalene-1-carboxamide]
MIC [1]: 99 µM (≈ 31.8 µg/mL)
IC50 [2]: > 30 µM
MIC [3]: 37 µM (≈ 11.9 µg/mL)
MIC (M. smegmatis ATCC 700084): 796 µM (≈ 256 µg/mL)

CCCOc1cccc(NC(=O)c2c(O)ccc3ccccc23)c1 [Compound 4b, 2-Hydroxy-N-(3-propoxyphenyl)naphthalene-1-carboxamide]
MIC [1]: 199 µM (≈ 64 µg/mL)
IC50 [2]: 8.97 ± 0.34 µM
MIC [3]: 46 µM (≈ 14.8 µg/mL)
MIC (M. smegmatis ATCC 700084): 398 µM (≈ 128 µg/mL)

CCCCOc1ccccc1NC(=O)c1c(O)ccc2ccccc12 [Compound 5a, N-(2-Butoxyphenyl)-2-hydroxynaphthalene-1-carboxamide]
MIC [1]: 763 µM (≈ 256 µg/mL)
IC50 [2]: > 30 µM
MIC [3]: 745 µM (≈ 250 µg/mL)
MIC (M. smegmatis ATCC 700084): 763 µM (≈ 256 µg/mL)

CCCCOc1ccc(NC(=O)c2c(O)ccc3ccccc23)cc1 [Compound 5c, N-(4-Butoxyphenyl)-2-hydroxynaphthalene-1-carboxamide]
MIC [1]: 95 µM (≈ 31.9 µg/mL)
IC50 [2]: > 30 µM
MIC [3]: 745 µM (≈ 250 µg/mL)
MIC (M. smegmatis ATCC 700084): 763 µM (≈ 256 µg/mL)

CC(C)Oc1ccccc1NC(=O)c1c(O)ccc2ccccc12 [Compound 6a, 2-Hydroxy-N-[2-(prop-2-yloxy)phenyl]naphthalene-1-carboxamide]
MIC [1]: 99 µM (≈ 31.8 µg/mL)
IC50 [2]: > 30 µM
MIC [3]: 31 µM (≈ 9.96 µg/mL)
MIC (M. smegmatis ATCC 700084): 796 µM (≈ 256 µg/mL)

CC(C)Oc1cccc(NC(=O)c2c(O)ccc3ccccc23)c1 [Compound 6b, 2-Hydroxy-N-[3-(prop-2-yloxy)phenyl]naphthalene-1-carboxamide]
MIC [1]: 199 µM (≈ 64 µg/mL)
IC50 [2]: 8.84 ± 0.22 µM
MIC [3]: 778 µM (≈ 250 µg/mL)
MIC (M. smegmatis ATCC 700084): 398 µM (≈ 128 µg/mL)

CCC(C)Oc1ccccc1NC(=O)c1c(O)ccc2ccccc12 (centres unmarked) [Compound 7a, N-[2-(But-2-yloxy)phenyl]-2-hydroxynaphthalene-1-carboxamide]
MIC [1]: 95 µM (≈ 31.9 µg/mL)
IC50 [2]: 8.35 ± 1.25 µM
MIC [3]: 44 µM (≈ 14.8 µg/mL)
MIC (M. smegmatis ATCC 700084): 763 µM (≈ 256 µg/mL)

O=C(Nc1ccccc1)c1ccc2ccccc2c1O [Compound 8, 1-Hydroxy-N-phenylnaphthalene-2-carboxamide]
MIC [1]: 15 µM (≈ 3.95 µg/mL)
IC50 [2]: > 30 µM
MIC [3]: 97 µM (≈ 25.5 µg/mL)
MIC (M. smegmatis ATCC 700084): 243 µM (≈ 64 µg/mL)

COc1ccccc1NC(=O)c1ccc2ccccc2c1O [Compound 9a, 1-hydroxy-N-(2-methoxyphenyl)naphtha-lene-2-carboxamide]
MIC [1]: 873 µM (≈ 256 µg/mL)
MIC [3]: 852 µM (≈ 250 µg/mL)
MIC (M. smegmatis ATCC 700084): 873 µM (≈ 256 µg/mL)

COc1cccc(NC(=O)c2ccc3ccccc3c2O)c1 [Compound 9b, 1-hydroxy-N-(3-methoxyphenyl)naphthalene-2-carboxamide]
MIC [1]: 873 µM (≈ 256 µg/mL)
MIC [3]: 852 µM (≈ 250 µg/mL)
MIC (M. smegmatis ATCC 700084): 873 µM (≈ 256 µg/mL)

COc1ccc(NC(=O)c2ccc3ccccc3c2O)cc1 [Compound 9c, 1-hydroxy-N-(4-methoxyphenyl)naphthalene-2-carboxamide]
MIC [1]: 873 µM (≈ 256 µg/mL)
MIC [3]: 852 µM (≈ 250 µg/mL)
MIC (M. smegmatis ATCC 700084): 873 µM (≈ 256 µg/mL)

CCOc1ccccc1NC(=O)c1ccc2ccccc2c1O [Compound 10a, N-(2-Ethoxyphenyl)-1-hydroxynaphthalene-2-carboxamide]
MIC [1]: 832 µM (≈ 256 µg/mL)
MIC [3]: 813 µM (≈ 250 µg/mL)
MIC (M. smegmatis ATCC 700084): 832 µM (≈ 256 µg/mL)

CCOc1cccc(NC(=O)c2ccc3ccccc3c2O)c1 [Compound 10b, N-(3-Ethoxyphenyl)-1-hydroxynaphthalene-2-carboxamide]
MIC [1]: 52 µM (≈ 16 µg/mL)
IC50 [2]: 3.02 ± 0.96 µM
MIC [3]: 813 µM (≈ 250 µg/mL)
MIC (M. smegmatis ATCC 700084): 832 µM (≈ 256 µg/mL)

CCOc1ccc(NC(=O)c2ccc3ccccc3c2O)cc1 [Compound 10c, N-(4-Ethoxyphenyl)-1-hydroxynaphthalene-2-carboxamide]
MIC [1]: 832 µM (≈ 256 µg/mL)
MIC [3]: 813 µM (≈ 250 µg/mL)
MIC (M. smegmatis ATCC 700084): 832 µM (≈ 256 µg/mL)

CCCOc1ccccc1NC(=O)c1ccc2ccccc2c1O [Compound 11a, 1-Hydroxy-N-(2-propoxyphenyl)naphthalene-2-carboxamide]
MIC [1]: 24 µM (≈ 7.71 µg/mL)
MIC [3]: 778 µM (≈ 250 µg/mL)
MIC (M. smegmatis ATCC 700084): 796 µM (≈ 256 µg/mL)

CCCOc1ccc(NC(=O)c2ccc3ccccc3c2O)cc1 [Compound 11c, 1-Hydroxy-N-(4-propoxyphenyl)naphthalene-2-carboxamide]
MIC [1]: 24 µM (≈ 7.71 µg/mL)
IC50 [2]: > 30 µM
MIC [3]: 778 µM (≈ 250 µg/mL)
MIC (M. smegmatis ATCC 700084): 796 µM (≈ 256 µg/mL)

CCCCOc1ccccc1NC(=O)c1ccc2ccccc2c1O [Compound 12a, N-(2-Butoxyphenyl)-1-hydroxynaphthalene-2-carboxamide]
MIC [1]: 763 µM (≈ 256 µg/mL)
MIC [3]: 745 µM (≈ 250 µg/mL)
MIC (M. smegmatis ATCC 700084): 763 µM (≈ 256 µg/mL)

CCCCOc1ccc(NC(=O)c2ccc3ccccc3c2O)cc1 [Compound 12c, N-(4-Butoxyphenyl)-1-hydroxynaphthalene-2-carboxamide]
MIC [1]: 23 µM (≈ 7.71 µg/mL)
IC50 [2]: > 30 µM
MIC [3]: 745 µM (≈ 250 µg/mL)
MIC (M. smegmatis ATCC 700084): 763 µM (≈ 256 µg/mL)

CC(C)Oc1ccccc1NC(=O)c1ccc2ccccc2c1O [Compound 13a, 1-Hydroxy-N-[2-(prop-2-yloxy)phenyl]naphthalene-2-carboxamide]
MIC [1]: 796 µM (≈ 256 µg/mL)
MIC [3]: 778 µM (≈ 250 µg/mL)
MIC (M. smegmatis ATCC 700084): 796 µM (≈ 256 µg/mL)

CC(C)Oc1cccc(NC(=O)c2ccc3ccccc3c2O)c1 [Compound 13b, 1-Hydroxy-N-[3-(prop-2-yloxy)phenyl]naphthalene-2-carboxamide]
MIC [1]: 796 µM (≈ 256 µg/mL)
IC50 [2]: 4.32 ± 0.74 µM
MIC [3]: 389 µM (≈ 125 µg/mL)
MIC (M. smegmatis ATCC 700084): 796 µM (≈ 256 µg/mL)

CC(C)Oc1ccc(NC(=O)c2ccc3ccccc3c2O)cc1 [Compound 13c, 1-Hydroxy-N-[4-(prop-2-yloxy)phenyl]naphthalene-2-carboxamide]
MIC [1]: 49 µM (≈ 15.7 µg/mL)
IC50 [2]: 9.39 ± 1.39 µM
MIC [3]: 778 µM (≈ 250 µg/mL)
MIC (M. smegmatis ATCC 700084): 796 µM (≈ 256 µg/mL)

CCC(C)Oc1ccccc1NC(=O)c1ccc2ccccc2c1O (centres unmarked) [Compound 14a, N-[2-(But-2-yloxy)phenyl]-1-hydroxynaphthalene-2-carboxamide]
MIC [1]: 47 µM (≈ 15.8 µg/mL)
IC50 [2]: 9.03 ± 1.18 µM
MIC [3]: 745 µM (≈ 250 µg/mL)
MIC (M. smegmatis ATCC 700084): 763 µM (≈ 256 µg/mL)

CCC(C)Oc1ccc(NC(=O)c2ccc3ccccc3c2O)cc1 (centres unmarked) [Compound 14c, N-[4-(But-2-yloxy)phenyl]-1-hydroxynaphthalene-2-carboxamide]
MIC [1]: 23 µM (≈ 7.71 µg/mL)
IC50 [2]: 3.41 ± 0.41 µM
MIC [3]: 745 µM (≈ 250 µg/mL)
MIC (M. smegmatis ATCC 700084): 12 µM (≈ 4.02 µg/mL)

NNC(=O)c1ccncc1 [INH, isoniazid, reference compound]
IC50 [2]: > 30 µM
MIC [3]: 58 µM (≈ 7.95 µg/mL)

CO[C@H]1/C=C/O[C@@]2(C)Oc3c(C)c(O)c4c(O)c(c(/C=N/N5CCN(C)CC5)c(O)c4c3C2=O)NC(=O)/C(C)=C\C=C\[C@H](C)[C@H](O)[C@@H](C)[C@@H](O)[C@@H](C)[C@H](OC(C)=O)[C@@H]1C [RIF, rifampicin, reference compound]
MIC [1]: 0.15 µM (≈ 0.123 µg/mL)
IC50 [2]: > 30 µM
MIC [3]: 10 µM (≈ 8.23 µg/mL)
MIC (M. smegmatis ATCC 700084): 19 µM (≈ 15.6 µg/mL)
